The assay addresses T1, hGPR120 (Homo sapiens, UniProt Q5NUL3).
T1 construct: expressed in transfected cells; host or cells: CHO-K1
T1 sequence (Q5NUL3 1-361): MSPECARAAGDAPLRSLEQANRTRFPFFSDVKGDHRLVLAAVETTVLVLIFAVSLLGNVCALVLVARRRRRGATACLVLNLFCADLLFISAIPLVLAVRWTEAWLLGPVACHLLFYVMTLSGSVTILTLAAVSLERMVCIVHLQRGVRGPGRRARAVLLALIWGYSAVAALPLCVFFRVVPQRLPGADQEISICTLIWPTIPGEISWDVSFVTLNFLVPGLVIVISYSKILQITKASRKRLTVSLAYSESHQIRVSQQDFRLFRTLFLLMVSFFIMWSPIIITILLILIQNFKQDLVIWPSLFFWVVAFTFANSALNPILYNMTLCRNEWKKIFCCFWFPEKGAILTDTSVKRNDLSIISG
The assay can be described thus: Measurement of Activity of GPR120 Agonist (Cell-Based Assay), Calcium 5 dye fluorescence. Conditions: CHO-K1 cells expressing Ga16 and hGPR120. An outline of the steps: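 After an 18 h incubation at 37 °C, the transfected CHO-K1 cells (Gα16, hGPR120) received Calcium 5 dye for 1 h; compound dilutions in 0.5% DMSO were then injected and emission at 525 nm recorded, with values given as % of the vehicle response.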

As usually defined, the EC50 is the concentration giving half of the maximal effect. In the case of `O=C(O)CCCOc1c(F)cc(-c2ccc(Cl)c(OCC3CC3)c2)cc1F` [Example 534, 4-(4′-chloro-3′-cyclopropylmethoxy-3,5-difluoro-biphenyl-4-yloxy)-butyric acid], the EC50 is 200 to 2000 nM. On to `O=C(O)CCCOc1ccc(-c2cc(F)cc(OC3CCC3)c2)cc1F` [Example 536, 4-(5′-cyclobutoxy-3,3′-difluoro-biphenyl-4-yloxy)-butyric acid], for which the EC50 was under 200 nM. The figure for `O=C(O)CCCCc1ccc(-c2cccc(OC3CCC3)n2)cc1F` [Example 537, 5-[4-(6-cyclobutoxy-pyridin-2-yl)-2-fluoro-phenyl]-pentanoic acid] is under 200 nM; for `O=C(O)CCCOc1ccc(-c2cccc(OC3CCC3)n2)cc1F` [Example 538, 4-[4-(6-cyclobutoxy-pyridin-2-yl)-2-fluoro-phenoxy]-butyric acid] it is under 200 nM; for `O=C(O)CCCOc1ccc(-c2cccc(OCC3CCC3)n2)cc1F` [Example 539, 4-[4-(6-cyclobutylmethoxy-pyridin-2-yl)-2-fluoro-phenoxy]-butyric acid] it is 200 to 2000 nM. For `O=C(O)CCCOc1ccc(-c2cccc(SC3CCC3)n2)cc1F` [Example 540, 4-[4-(6-cyclobutylsulfanyl-pyridin-2-yl)-2-fluoro-phenoxy]-butyric acid] the value was under 200 nM; for `O=C(O)C1CC1COc1c(F)cc(-c2cc(F)cc(OC3CCC3)c2)cc1F` (stereo not drawn) [Example 541, 2-(3′-cyclobutoxy-3,5,5′-trifluoro-biphenyl-4-yloxymethyl)-cyclopropanecarboxylic acid], under 200 nM. For `Cc1cc(OC2CCC2)nc(-c2cc(F)c(OCC3CC3C(=O)O)c(F)c2)n1` (stereo not drawn) [Example 542, 2-[4-(4-cyclobutoxy-6-methyl-pyrimidin-2-yl)-2,6-difluoro-phenoxymethyl]-cyclopropanecarboxylic acid] the value was under 200 nM; for `O=C(O)C1CC1COc1c(F)cc(-c2nccc(OC3CCC3)n2)cc1F` (stereo not drawn) [Example 543, 2-[4-(4-cyclobutoxy-pyrimidin-2-yl)-2,6-difluoro-phenoxymethyl]-cyclopropanecarboxylic acid], under 200 nM. `O=C(O)C1CC1COc1c(F)cc(-c2cccc(OC3CCC3)n2)cc1F` (stereo not drawn) [Example 544, 2-[4-(6-cyclobutoxy-pyridin-2-yl)-2,6-difluoro-phenoxymethyl]-cyclopropanecarboxylic acid]: the EC50 is under 200 nM.

Turning to `O=C(O)C1CC1COc1c(F)cc(-c2nccc(OCC3CC3)n2)cc1F` (stereo not drawn) [Example 545, 2-[4-(4-cyclopropylmethoxy-pyrimidin-2-yl)-2,6-difluoro-phenoxymethyl]-cyclopropanecarboxylic acid], the EC50 fell in the range of 200 to 2000 nM. The figure for `Cc1cc(OCC2CC2)nc(-c2cc(F)c(OCC3CC3C(=O)O)c(F)c2)n1` (stereo not drawn) [Example 546, 2-[4-(4-cyclopropylmethoxy-6-methyl-pyrimidin-2-yl)-2,6-difluoro-phenoxymethyl]-cyclopropanecarboxylic acid] is 200 to 2000 nM.

`O=C(O)C1CC1COc1c(F)cc(-c2cncc(OCC3CC3)n2)cc1F` (stereo not drawn) [Example 547, 2-[4-(6-cyclopropylmethoxy-pyrazin-2-yl)-2,6-difluoro-phenoxymethyl]-cyclopropanecarboxylic acid]: the EC50 was 200 to 2000 nM. For `Cc1cc(OC2CCC2)nc(-c2cc(F)c(OCC3CC3C(=O)O)c(F)c2)c1` (stereo not drawn) [Example 548, 2-[4-(6-cyclobutoxy-4-methyl-pyridin-2-yl)-2,6-difluoro-phenoxymethyl]-cyclopropanecarboxylic acid] the value was under 200 nM; for `O=C(O)C1CC1COc1c(F)cc(-c2cccc(OCC3CC3)n2)cc1F` (stereo not drawn) [Example 549, 2-[4-(6-cyclopropylmethoxy-pyridin-2-yl)-2,6-difluoro-phenoxymethyl]-cyclopropanecarboxylic acid], under 200 nM; for `O=C(O)C1CC1COc1c(F)cc(-c2cncc(OC3CCC3)n2)cc1F` (stereo not drawn) [Example 550, 2-[4-(6-cyclobutoxy-pyrazin-2-yl)-2,6-difluoro-phenoxymethyl]-cyclopropanecarboxylic acid], under 200 nM.

On to `O=C(O)C1CC1COc1c(F)cc(-c2csc(OC3CCC3)n2)cc1F` (stereo not drawn) [Example 551, 2-[4-(2-cyclobutoxy-thiazol-4-yl)-2,6-difluoro-phenoxymethyl]-cyclopropanecarboxylic acid], for which the EC50 lay within 200 to 2000 nM. For the compound `O=C(O)C1CC1COc1c(F)cc(-c2cccc(OCC3CC3)n2)cc1Cl` (stereo not drawn) [Example 552, 2-[2-chloro-4-(6-cyclopropylmethoxy-pyridin-2-yl)-6-fluoro-phenoxymethyl]-cyclopropanecarboxylic acid], the EC50 lay within 200 to 2000 nM. The figure for `Cc1cc(OC2CCC2)nc(-c2cc(F)c(OCC3CC3C(=O)O)c(Cl)c2)n1` (stereo not drawn) [Example 553, 2-[2-chloro-4-(4-cyclobutoxy-6-methyl-pyrimidin-2-yl)-6-fluoro-phenoxymethyl]-cyclopropanecarboxylic acid] is 200 to 2000 nM.

On to `O=C(O)C1CC1COc1c(F)cc(-c2cccc(OC3CCC3)n2)cc1Cl` (stereo not drawn) [Example 554, 2-[2-chloro-4-(6-cyclobutoxy-pyridin-2-yl)-6-fluoro-phenoxymethyl]-cyclopropanecarboxylic acid], for which the EC50 was under 200 nM. For `O=C(O)CCC1CCc2cc(-c3cccc(OC4CCC4)c3)ccc2O1` (stereo not drawn) [Example 555, 3-[6-(3-cyclobutoxy-phenyl)-chroman-2-yl]-propionic acid] the value was under 200 nM; for `CCCOc1cccc(-c2ccc3c(c2)CCC(CCC(=O)O)O3)n1` (stereo not drawn) [Example 556, 3-[6-(6-propoxy-pyridin-2-yl)-chroman-2-yl]-propionic acid], under 200 nM; for `O=C(O)CCCOc1c(F)cc(-c2ccc3cc[nH]c3c2)cc1F` [Example 557, 4-[2,6-difluoro-4-(1H-indol-6-yl)-phenoxy]-butanoic acid], 2000 to 20000 nM. The figure for `CC(C)n1ccc2ccc(-c3cc(F)c(OCCCC(=O)O)c(F)c3)cc21` [Example 558, 4-[2,6-difluoro-4-(1-isopropyl-1H-indol-6-yl)-phenoxy]-butanoic acid] is under 200 nM; for `O=C(O)CCCOc1c(F)cc(-c2ccc3ccn(CC4CC4)c3c2)cc1F` [Example 559, 4-[4-(1-cyclopropylmethyl-1H-indol-6-yl)-2,6-difluoro-phenoxy]-butanoic acid] it is under 200 nM. For `O=C(O)CC1CCN(c2c(F)cc(-c3cccc(OCC4CC4)n3)cc2F)C1` (stereo not drawn) [Example 560, {1-[4-(6-cyclopropylmethoxy-pyridin-2-yl)-2,6-difluoro-phenyl]-pyrrolidin-3-yl}-acetic acid] the value was under 200 nM. In the case of `O=C(O)CC1CCN(c2c(F)cc(-c3cccc(OC4CCC4)n3)cc2F)C1` (stereo not drawn) [Example 561, {1-[4-(6-cyclobutoxy-pyridin-2-yl)-2,6-difluoro-phenyl]-pyrrolidin-3-yl}-acetic acid], the EC50 is under 200 nM. The figure for `CC(C)n1cc(Cl)c2ccc(-c3cc(F)c(OCCCC(=O)O)c(F)c3)cc21` [Example 562, 4-[4-(3-chloro-1-isopropyl-1H-indol-6-yl)-2,6-difluoro-phenoxy]-butanoic acid] is 2000 to 20000 nM; for `CC(C)Oc1cccc(-c2cc(F)c(N3CCC(CC(=O)O)C3)c(F)c2)n1` (stereo not drawn) [Example 563, {1-[2,6-difluoro-4-(6-isopropoxy-pyridin-2-yl)-phenyl]-pyrrolidin-3-yl}-acetic acid] it is under 200 nM.

As for `O=C(O)CC1CCN(c2c(F)cc(-c3cccc(OCC4CCC4)n3)cc2F)C1` (stereo not drawn) [Example 564, {1-[4-(6-cyclobutylmethoxy-pyridin-2-yl)-2,6-difluoro-phenyl]-pyrrolidin-3-yl}-acetic acid], the EC50 lay in the range of 200 to 2000 nM. On to `O=C(O)CCCOc1c(F)cc(-c2ccc(COCC3CC3)s2)cc1F` [Example 565, 4-[4-(5-cyclopropylmethoxymethyl-thiophen-2-yl)-2,6-difluoro-phenoxy]-butanoic acid], for which the EC50 is under 200 nM. With `O=C(O)CCCOc1c(F)cc(-c2csc(COCC3CC3)c2)cc1F` [Example 566, 4-[4-(5-cyclopropylmethoxymethyl-thiophen-3-yl)-2,6-difluoro-phenoxy]-butanoic acid], the EC50 is under 200 nM. The figure for `O=C(O)CC1CCN(c2c(F)cc(-c3csc(COCC4CC4)c3)cc2F)CC1` [Example 567, {1-[4-(5-cyclopropylmethoxymethyl-thiophen-3-yl)-2,6-difluoro-phenyl]-piperidin-4-yl}-acetic acid] is 200 to 2000 nM; for `Cc1nc(COCC2CC2)c(-c2cc(F)c(OCCCC(=O)O)c(F)c2)s1` [Example 568, 4-[4-(4-cyclopropylmethoxymethyl-2-methyl-thiazol-5-yl)-2,6-difluoro-phenoxy]-butanoic acid] it is 2000 to 20000 nM. The figure for `O=C(O)CC1CCN(c2c(F)cc(-c3ccc(COCC4CC4)s3)cc2F)CC1` [Example 569, {1-[4-(5-cyclomethoxymethyl-thiophen-2-yl)-2,6-difluoro-phenyl]-piperidin-4-yl}-acetic acid] is 2000 to 20000 nM; for `Cc1nc(COCC2CC2)c(-c2cc(F)c(N3CCC(CC(=O)O)CC3)c(F)c2)s1` [Example 570, {1-[4-(4-cyclopropylmethoxymethyl-2-methyl-thiazol-5-yl)-2,6-difluoro-phenyl]-piperidin-4-yl}-acetic acid] it is 200 to 2000 nM.
